Test results taken from publication PMC9067983, “Identification of highly selective type II kinase inhibitors with chiral peptidomimetic tails” (Journal of Enzyme Inhibition and Medicinal Chemistry, 2022).
Where a SMILES comes first, the peptide text is derived from it. [ ]: non-standard residue; d: D form. The star is where a group is joined. X1 = Cc1ccc(Nc2ncc3c(n2)N(C)C(=O)N(c2cc(C(=O)*)ccc2C)C3)cn1; Aib = CC(C)(N)C(=O)O

Assays:
Assay in all cases: kinase selectivity profiling
Assay type in all cases: biochemical
Details in all cases: 10µM ATP, read-out: % inhibition (relative to DMSO)
COT1/MAP3K8 = molecular target: T1, COT1/MAP3K8 (Homo sapiens, UniProt P41279)
T1 construct: purchased Reaction Biology Corp
Method: (§1) Full panel kinase profiling and kinase IC50 measurement were performed by using Reaction Biology Corp. (San Diego, USA).

WNK2 = molecular target: T2, WNK2 (Homo sapiens, UniProt Q9Y3S1)
T2 construct: purchased Reaction Biology Corp
Method: as §1

IRAK1 = molecular target: T3, IRAK1 (Homo sapiens, UniProt P51617)
T3 construct: purchased Reaction Biology Corp
Method: as §1

PKCtheta = molecular target: T4, PKCtheta (Homo sapiens, UniProt Q04759)
T4 construct: purchased Reaction Biology Corp
Method: as §1

NEK9 = molecular target: T5, NEK9 (Homo sapiens, UniProt Q8TD19)
T5 construct: purchased Reaction Biology Corp
Method: as §1

DCAMKL2 = molecular target: T6, DCAMKL2 (Homo sapiens, UniProt Q8N568)
T6 construct: purchased Reaction Biology Corp
Method: as §1

ALK = molecular target: T7, ALK (Homo sapiens, UniProt Q9UM73)
T7 construct: purchased Reaction Biology Corp
Method: as §1

CK1g1 = molecular target: T8, CK1g1 (Homo sapiens, UniProt Q9HCP0)
T8 construct: purchased Reaction Biology Corp
Method: as §1

CAMK2d = molecular target: T9, CAMK2d (Homo sapiens, UniProt Q13557)
T9 construct: purchased Reaction Biology Corp
Method: as §1

CDK2/Cyclin A1 = molecular target: T10, CDK2/Cyclin A1 (Homo sapiens, UniProt P24941)
T10 construct: purchased Reaction Biology Corp
Method: as §1

ERK1 = molecular target: T11, ERK1 (Homo sapiens, UniProt P27361)
T11 construct: purchased Reaction Biology Corp
Method: as §1

BRSK1 = molecular target: T12, BRSK1 (Homo sapiens, UniProt Q8TDC3)
T12 construct: purchased Reaction Biology Corp
Method: as §1

PKA = molecular target: T13, PKA (Homo sapiens, UniProt P17612)
T13 construct: purchased Reaction Biology Corp
Method: as §1

MSSK1/STK23 = molecular target: T14, MSSK1/STK23 (Homo sapiens, UniProt Q9UPE1)
T14 construct: purchased Reaction Biology Corp
Method: as §1

EPHB1 = molecular target: T15, EPHB1 (Homo sapiens, UniProt P54762)
T15 construct: purchased Reaction Biology Corp
Method: as §1

ALK5/TGFBR1 = molecular target: T16, ALK5/TGFBR1 (Homo sapiens, UniProt P36897)
T16 construct: purchased Reaction Biology Corp
Method: as §1

MEK2 = molecular target: T17, MEK2 (Homo sapiens, UniProt P36507)
T17 construct: purchased Reaction Biology Corp
Method: as §1

ALK6/BMPR1B = molecular target: T18, ALK6/BMPR1B (Homo sapiens, UniProt O00238)
T18 construct: purchased Reaction Biology Corp
Method: as §1

RIPK2 = molecular target: T19, RIPK2 (Homo sapiens, UniProt O43353)
T19 construct: purchased Reaction Biology Corp
Method: as §1

GRK5 = molecular target: T20, GRK5 (Homo sapiens, UniProt P34947)
T20 construct: purchased Reaction Biology Corp
Method: as §1

CAMK2g = molecular target: T21, CAMK2g (Homo sapiens, UniProt Q13555)
T21 construct: purchased Reaction Biology Corp
Method: as §1

Blk = molecular target: T22, Blk (Homo sapiens, UniProt P51451)
T22 construct: purchased Reaction Biology Corp
Method: as §1

FLT3 = molecular target: T23, FLT3 (Homo sapiens, UniProt P36888)
T23 construct: purchased Reaction Biology Corp
Method: as §1

MST2/STK3 = molecular target: T24, MST2/STK3 (Homo sapiens, UniProt Q13188)
T24 construct: purchased Reaction Biology Corp
Method: as §1

CDK5/p35 = molecular target: T25, CDK5/p35 (Homo sapiens, UniProt Q00535)
T25 construct: purchased Reaction Biology Corp
Method: as §1

TLK2 = molecular target: T26, TLK2 (Homo sapiens, UniProt Q86UE8)
T26 construct: purchased Reaction Biology Corp
Method: as §1

SGK3/SGKL = molecular target: T27, SGK3/SGKL (Homo sapiens, UniProt Q96BR1)
T27 construct: purchased Reaction Biology Corp
Method: as §1

Aurora C = molecular target: T28, Aurora C (Homo sapiens, UniProt Q9UQB9)
T28 construct: purchased Reaction Biology Corp
Method: as §1

c-Kit = molecular target: T29, c-Kit (Homo sapiens, UniProt P10721)
T29 construct: purchased Reaction Biology Corp
Method: as §1

MLCK2/MYLK2 = molecular target: T30, MLCK2/MYLK2 (Homo sapiens, UniProt Q9H1R3)
T30 construct: purchased Reaction Biology Corp
Method: as §1

NEK6 = molecular target: T31, NEK6 (Homo sapiens, UniProt Q9HC98)
T31 construct: purchased Reaction Biology Corp
Method: as §1

PIM2 = molecular target: T32, PIM2 (Homo sapiens, UniProt Q9P1W9)
T32 construct: purchased Reaction Biology Corp
Method: as §1

CDK17/cyclin Y (PCTK2) = molecular target: T33, CDK17/cyclin Y (PCTK2) (Homo sapiens, UniProt Q00537)
T33 construct: purchased Reaction Biology Corp
Method: as §1

YSK4/MAP3K19 = molecular target: T34, YSK4/MAP3K19 (Homo sapiens, UniProt Q56UN5)
T34 construct: purchased Reaction Biology Corp
Method: as §1

STK32B/YANK2 = molecular target: T35, STK32B/YANK2 (Homo sapiens, UniProt Q9NY57)
T35 construct: purchased Reaction Biology Corp
Method: as §1

IGF1R = molecular target: T36, IGF1R (Homo sapiens, UniProt P08069)
T36 construct: purchased Reaction Biology Corp
Method: as §1

TAOK3/JIK = molecular target: T37, TAOK3/JIK (Homo sapiens, UniProt Q9H2K8)
T37 construct: purchased Reaction Biology Corp
Method: as §1

FGFR2 = molecular target: T38, FGFR2 (Homo sapiens, UniProt P21802)
T38 construct: purchased Reaction Biology Corp
Method: as §1

Haspin = molecular target: T39, Haspin (Homo sapiens, UniProt Q8TF76)
T39 construct: purchased Reaction Biology Corp
Method: as §1

DYRK1B = molecular target: T40, DYRK1B (Homo sapiens, UniProt Q9Y463)
T40 construct: purchased Reaction Biology Corp
Method: as §1

AKT1 = molecular target: T41, AKT1 (Homo sapiens, UniProt P31749)
T41 construct: purchased Reaction Biology Corp
Method: as §1

ULK2 = molecular target: T42, ULK2 (Homo sapiens, UniProt Q8IYT8)
T42 construct: purchased Reaction Biology Corp
Method: as §1

CK1a1 = molecular target: T43, CK1a1 (Homo sapiens, UniProt P48729)
T43 construct: purchased Reaction Biology Corp
Method: as §1

T40 sequence (Q9Y463 whole entry): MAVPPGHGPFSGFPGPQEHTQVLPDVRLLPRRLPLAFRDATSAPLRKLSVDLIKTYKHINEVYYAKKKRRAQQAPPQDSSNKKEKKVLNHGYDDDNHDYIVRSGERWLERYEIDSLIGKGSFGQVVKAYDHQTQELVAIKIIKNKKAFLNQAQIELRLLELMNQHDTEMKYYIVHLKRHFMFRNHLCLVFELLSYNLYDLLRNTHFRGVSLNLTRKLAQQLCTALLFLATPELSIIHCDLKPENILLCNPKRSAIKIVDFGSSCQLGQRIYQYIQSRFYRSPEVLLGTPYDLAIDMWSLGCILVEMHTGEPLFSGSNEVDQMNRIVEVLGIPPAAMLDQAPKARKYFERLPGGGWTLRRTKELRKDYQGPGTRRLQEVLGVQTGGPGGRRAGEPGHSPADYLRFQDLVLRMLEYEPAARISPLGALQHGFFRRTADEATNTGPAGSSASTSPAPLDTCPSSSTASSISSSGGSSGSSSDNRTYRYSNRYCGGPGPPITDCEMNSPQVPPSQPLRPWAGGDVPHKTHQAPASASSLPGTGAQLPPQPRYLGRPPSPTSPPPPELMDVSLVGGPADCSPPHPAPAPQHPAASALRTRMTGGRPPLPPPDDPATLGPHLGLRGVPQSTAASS
T27 sequence (Q96BR1 whole entry): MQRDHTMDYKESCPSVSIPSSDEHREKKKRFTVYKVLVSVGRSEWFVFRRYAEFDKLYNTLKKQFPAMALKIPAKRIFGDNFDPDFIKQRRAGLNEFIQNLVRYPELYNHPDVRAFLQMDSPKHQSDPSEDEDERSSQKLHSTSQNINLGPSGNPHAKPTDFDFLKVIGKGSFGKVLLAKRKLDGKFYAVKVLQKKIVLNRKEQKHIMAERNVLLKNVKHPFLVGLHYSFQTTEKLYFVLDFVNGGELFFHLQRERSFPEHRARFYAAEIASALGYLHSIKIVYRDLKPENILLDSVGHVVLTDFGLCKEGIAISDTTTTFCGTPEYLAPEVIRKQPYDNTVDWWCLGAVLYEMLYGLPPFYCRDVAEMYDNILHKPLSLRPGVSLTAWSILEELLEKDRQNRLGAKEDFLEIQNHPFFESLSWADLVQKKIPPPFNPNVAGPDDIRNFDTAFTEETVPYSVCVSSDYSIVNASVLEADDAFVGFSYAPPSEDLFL
T34 sequence (Q56UN5 whole entry): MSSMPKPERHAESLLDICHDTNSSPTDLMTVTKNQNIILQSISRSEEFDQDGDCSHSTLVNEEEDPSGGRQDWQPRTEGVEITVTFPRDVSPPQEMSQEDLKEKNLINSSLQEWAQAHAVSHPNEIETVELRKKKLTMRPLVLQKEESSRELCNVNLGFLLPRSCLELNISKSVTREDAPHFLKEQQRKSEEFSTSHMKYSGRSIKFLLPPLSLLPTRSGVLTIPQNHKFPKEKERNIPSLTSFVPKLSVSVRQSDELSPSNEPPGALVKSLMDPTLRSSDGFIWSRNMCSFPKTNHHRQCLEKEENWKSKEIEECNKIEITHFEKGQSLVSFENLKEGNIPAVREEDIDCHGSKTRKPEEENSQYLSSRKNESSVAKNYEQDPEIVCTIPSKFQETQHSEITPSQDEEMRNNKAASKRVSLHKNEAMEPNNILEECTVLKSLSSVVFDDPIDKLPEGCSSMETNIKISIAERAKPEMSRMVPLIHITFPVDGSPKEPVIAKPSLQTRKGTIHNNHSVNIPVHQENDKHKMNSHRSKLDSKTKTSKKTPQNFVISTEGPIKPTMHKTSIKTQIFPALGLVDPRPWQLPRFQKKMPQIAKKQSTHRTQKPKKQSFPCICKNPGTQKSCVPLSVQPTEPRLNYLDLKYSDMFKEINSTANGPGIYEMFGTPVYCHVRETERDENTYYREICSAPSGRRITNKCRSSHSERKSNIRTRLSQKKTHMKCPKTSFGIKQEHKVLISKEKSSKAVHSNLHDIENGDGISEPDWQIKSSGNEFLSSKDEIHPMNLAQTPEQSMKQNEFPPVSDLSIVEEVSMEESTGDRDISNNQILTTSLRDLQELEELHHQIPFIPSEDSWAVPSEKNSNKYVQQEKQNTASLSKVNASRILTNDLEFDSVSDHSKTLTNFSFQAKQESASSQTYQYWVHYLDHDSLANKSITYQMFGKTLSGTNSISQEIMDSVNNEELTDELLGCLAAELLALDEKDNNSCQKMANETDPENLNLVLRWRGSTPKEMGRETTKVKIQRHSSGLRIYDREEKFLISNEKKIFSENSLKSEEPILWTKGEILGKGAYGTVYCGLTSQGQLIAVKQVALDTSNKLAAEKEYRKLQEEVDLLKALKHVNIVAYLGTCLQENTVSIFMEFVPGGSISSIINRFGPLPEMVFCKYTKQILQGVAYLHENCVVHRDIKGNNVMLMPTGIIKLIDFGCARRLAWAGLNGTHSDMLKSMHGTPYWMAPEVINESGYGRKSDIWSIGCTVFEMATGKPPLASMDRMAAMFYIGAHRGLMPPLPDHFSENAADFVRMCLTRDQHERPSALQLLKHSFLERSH
T20 sequence (P34947 whole entry): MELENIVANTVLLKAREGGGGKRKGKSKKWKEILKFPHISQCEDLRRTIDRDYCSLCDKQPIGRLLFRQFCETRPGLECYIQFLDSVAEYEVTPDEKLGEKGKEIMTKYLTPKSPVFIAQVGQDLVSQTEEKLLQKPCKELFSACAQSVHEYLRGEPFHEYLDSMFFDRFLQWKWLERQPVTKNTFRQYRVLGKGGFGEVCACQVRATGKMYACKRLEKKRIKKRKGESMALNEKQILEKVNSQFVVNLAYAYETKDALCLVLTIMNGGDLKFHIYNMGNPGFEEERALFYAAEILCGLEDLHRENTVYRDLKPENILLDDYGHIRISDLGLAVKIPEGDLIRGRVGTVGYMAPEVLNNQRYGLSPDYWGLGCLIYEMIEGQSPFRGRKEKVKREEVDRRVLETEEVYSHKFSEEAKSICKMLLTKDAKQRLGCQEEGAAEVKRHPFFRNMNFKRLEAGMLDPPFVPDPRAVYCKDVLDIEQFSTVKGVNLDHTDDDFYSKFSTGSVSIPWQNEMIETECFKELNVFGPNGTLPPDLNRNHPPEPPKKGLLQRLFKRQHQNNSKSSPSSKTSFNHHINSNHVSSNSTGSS
T18 sequence (O00238 14-502): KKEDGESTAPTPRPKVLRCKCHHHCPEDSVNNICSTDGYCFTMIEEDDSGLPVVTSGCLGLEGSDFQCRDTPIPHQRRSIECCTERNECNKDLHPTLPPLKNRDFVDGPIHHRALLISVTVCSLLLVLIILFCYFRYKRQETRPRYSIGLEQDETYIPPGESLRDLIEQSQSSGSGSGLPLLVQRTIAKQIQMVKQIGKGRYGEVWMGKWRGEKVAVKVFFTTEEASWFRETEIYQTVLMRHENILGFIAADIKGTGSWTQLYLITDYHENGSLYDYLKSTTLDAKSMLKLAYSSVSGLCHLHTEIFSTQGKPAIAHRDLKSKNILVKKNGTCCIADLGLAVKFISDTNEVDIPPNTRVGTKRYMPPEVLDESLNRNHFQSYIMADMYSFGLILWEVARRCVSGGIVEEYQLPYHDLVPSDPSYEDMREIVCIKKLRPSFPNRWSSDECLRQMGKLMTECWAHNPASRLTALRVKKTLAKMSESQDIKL
T24 sequence (Q13188 whole entry): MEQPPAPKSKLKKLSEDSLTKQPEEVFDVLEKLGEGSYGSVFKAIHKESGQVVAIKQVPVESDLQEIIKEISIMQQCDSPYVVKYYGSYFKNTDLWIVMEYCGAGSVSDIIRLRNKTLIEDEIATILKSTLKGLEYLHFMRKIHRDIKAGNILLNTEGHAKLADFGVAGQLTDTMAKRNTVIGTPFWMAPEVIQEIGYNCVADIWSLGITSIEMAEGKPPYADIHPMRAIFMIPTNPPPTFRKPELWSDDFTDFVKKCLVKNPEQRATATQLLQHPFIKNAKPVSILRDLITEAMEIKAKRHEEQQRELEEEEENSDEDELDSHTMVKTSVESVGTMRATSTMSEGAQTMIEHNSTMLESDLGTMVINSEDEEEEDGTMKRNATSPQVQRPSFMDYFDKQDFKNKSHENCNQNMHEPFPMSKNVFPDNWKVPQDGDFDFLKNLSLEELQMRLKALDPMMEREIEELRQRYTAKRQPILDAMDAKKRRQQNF
T39 sequence (Q8TF76 whole entry): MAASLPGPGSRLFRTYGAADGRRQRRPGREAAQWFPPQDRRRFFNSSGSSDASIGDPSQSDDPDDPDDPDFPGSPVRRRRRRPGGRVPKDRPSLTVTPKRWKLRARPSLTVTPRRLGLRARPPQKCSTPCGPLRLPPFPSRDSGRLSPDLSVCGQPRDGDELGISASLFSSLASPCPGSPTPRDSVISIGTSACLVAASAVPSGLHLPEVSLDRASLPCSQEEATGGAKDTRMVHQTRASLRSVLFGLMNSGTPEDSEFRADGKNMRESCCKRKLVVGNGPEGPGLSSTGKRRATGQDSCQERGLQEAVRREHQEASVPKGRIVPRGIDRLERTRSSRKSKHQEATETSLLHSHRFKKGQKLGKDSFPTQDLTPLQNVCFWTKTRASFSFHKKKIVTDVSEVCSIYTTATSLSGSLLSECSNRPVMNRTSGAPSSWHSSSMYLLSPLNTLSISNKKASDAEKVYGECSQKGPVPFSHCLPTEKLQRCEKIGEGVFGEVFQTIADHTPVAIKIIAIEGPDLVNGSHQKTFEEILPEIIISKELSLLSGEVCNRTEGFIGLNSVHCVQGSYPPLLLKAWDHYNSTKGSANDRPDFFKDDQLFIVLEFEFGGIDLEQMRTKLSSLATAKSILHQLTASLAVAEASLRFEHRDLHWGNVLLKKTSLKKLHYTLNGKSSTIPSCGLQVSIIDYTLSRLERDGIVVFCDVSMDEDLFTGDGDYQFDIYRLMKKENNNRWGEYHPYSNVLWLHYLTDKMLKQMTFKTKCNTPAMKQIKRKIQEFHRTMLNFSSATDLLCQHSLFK

Work on Cc1ccc(Nc2ncc3c(n2)N(C)C(=O)N(c2cc(C(=O)N[C@H](C(=O)N4CCC[C@H]4C(=O)NC(C)(C)C(=O)N[C@@H](CC(C)C)C(=O)N(C)C)C(C)C)ccc2C)C3)cn1 [7a, (S)-N-(1-(((S)-1-(dimethylamino)-4-methyl-1-oxopentan-2-yl)amino)-2-methyl-1-oxopropan-2-yl)-1-((4-methyl-3-(1-methyl-7-((6-methylpyridin-3-yl)amino)-2-oxo-1,4-dihydropyrimido[4,5-d]pyrimidin-3(2H)-yl)benzoyl)-L-valyl)pyrrolidine-2-carboxamide] (X1-VP[Aib]L-NMe2) yielded an inhibition at 1 µM (COT1/MAP3K8) of 1%, an inhibition at 1 µM (WNK2) of 7% and an inhibition at 1 µM (IRAK1) of 14%. It also gave an inhibition at 1 µM (PKCtheta) of 0%, an inhibition at 1 µM (NEK9) of 8% and an inhibition at 1 µM (DCAMKL2) of 0%. For the same molecule, the inhibition at 1 µM (ALK) was 0%, the inhibition at 1 µM (CK1g1) was 0% and the inhibition at 1 µM (CAMK2d) was 0%. For the same molecule, the inhibition at 1 µM (CDK2/Cyclin A1) was 1%, the inhibition at 1 µM (ERK1) was 7% and the inhibition at 1 µM (BRSK1) was 2%. It also gave an inhibition at 1 µM (PKA) of 6%, an inhibition at 1 µM (MSSK1/STK23) of 10% and an inhibition at 1 µM (EPHB1) of 16%. It also gave an inhibition at 1 µM (ALK5/TGFBR1) of 0%, an inhibition at 1 µM (MEK2) of 11% and an inhibition at 1 µM (ALK6/BMPR1B) of 16%. It also gave an inhibition at 1 µM (RIPK2) of 1%, an inhibition at 1 µM (GRK5) of 1% and an inhibition at 1 µM (CAMK2g) of 0%. The inhibition at 1 µM (Blk) was 73%, the inhibition at 1 µM (FLT3) was 18% and the inhibition at 1 µM (MST2/STK3) was 7%. For the same molecule, the inhibition at 1 µM (CDK5/p35) was 6%, the inhibition at 1 µM (TLK2) was 0% and the inhibition at 1 µM (SGK3/SGKL) was 6%. For the same molecule, the inhibition at 1 µM (Aurora C) was 0%, the inhibition at 1 µM (c-Kit) was 27% and the inhibition at 1 µM (MLCK2/MYLK2) was 0%. The inhibition at 1 µM (NEK6) was 0%, the inhibition at 1 µM (PIM2) was 0% and the inhibition at 1 µM (CDK17/cyclin Y (PCTK2)) was 7%. The inhibition at 1 µM (YSK4/MAP3K19) was 0%, the inhibition at 1 µM (STK32B/YANK2) was 16% and the inhibition at 1 µM (IGF1R) was 0%. The inhibition at 1 µM (TAOK3/JIK) was 0%, the inhibition at 1 µM (FGFR2) was 12% and the inhibition at 1 µM (Haspin) was 1%. It also gave an inhibition at 1 µM (DYRK1B) of 11%, an inhibition at 1 µM (AKT1) of 8% and an inhibition at 1 µM (ULK2) of 5%. The inhibition at 1 µM (CK1a1) was 0%.
